Key:
[1] = alamarBlue cytotoxicity on murine macrophages; assay type: cell-based; details: mouse, J774A.1 macrophages; 24 h of incubation; read-out: Macrophages J744A.1 CC50
[2] = tested on: promastigotes of Leishmania amazonensis strain (MHOM/BR/77/LTB0016); assay: alamarBlue activity against promastigotes of L. amazonensis; assay type: cell-based; details: for IC50: Leishmania amazonensis, 72 h of incubation, mean with standard deviation; for Promastigotes L. amazonensis SI: selectivity index CC50/IC50
Description: (§1) For the anti-leishmanicidal experiments, promastigotes and amastigotes of Leishmania amazonensis strain (MHOM/BR/77/LTB0016) and promastigotes of Leishmania donovani strain (MHOM/IN/90/GE1F8R) were used, and they were maintained in RPMI 1640 medium (Gibco, Waltham, MA, USA) at 26 °C. For the trypanocidal experiments, epimastigotes of Trypanosoma cruzi (Y strain) were used, and they were maintained in liver infusion tryptose (LIT) medium supplemented with 10% of fetal bovine serum (FBS) at 26 °C. Murine macrophages J774A.1 (ATCC #TIB-67), maintained in DMEM medium at 37 °C with 5% CO2, were used for the cytotoxic activity assays.
(§2) For the activity against extracellular parasites of kinetoplastid, Leishmania and Trypanosoma parasites, in a 96-well plate, serial dilutions of the compounds were added with dilutions of 10^5 parasites per well and a 10% of alamarBlue Cell Viability Reagent® (Thermo Fisher Scientific, Waltham, MA, USA). After 72 h of incubation at 26 °C, the fluorescence of each well was measured in the EnSpire Multimode Plate Reader® (PerkinElmer, Thermo Fisher Scientific, Madrid, Spain). The inhibitory concentration 50 (IC50) was calculated by nonlinear regression analysis.

[3] = tested on: promastigotes of Leishmania donovani strain (MHOM/IN/90/GE1F8R); assay: alamarBlue activity against promastigotes of L. donovani; assay type: cell-based; details: for IC50: Leishmania donovani, 72 h of incubation, mean with standard deviation; for Promastigotes L. donovani SI: selectivity index CC50/IC50 (macrophages J744A.1 vs parasite)
Description: as §1, §2

[4] = tested on: epimastigotes of Trypanosoma cruzi (Y strain); assay: alamarBlue activity against epimastigotes of T. cruzi; assay type: cell-based; details: for IC50: Trypanosoma cruzi, 72 h of incubation, mean with standard deviation; for Epimastigotes T. cruzi SI: selectivity index CC50/IC50
Description: as §1, §2

T. cruzi = tested on: T. cruzi; design: method as in PMID 17950283; details: read-out: IC50 against T. cruzi; cited from earlier work

C=C1CC[C@@H](C(C)C)/C=C/[C@@](C)(O)CC[C@H]1O [Nephthediol (10), (−) nephthediol]
CC50 at 24 h [1]: 23.58 ± 0.21 µM | IC50 [2]: > 105 µM | Promastigotes L. amazonensis SI [2]: <0.22 | IC50 [3]: > 105 µM | Promastigotes L. donovani SI [3]: <0.22 | IC50 [4]: > 105 µM | Epimastigotes T. cruzi SI [4]: <0.22

C=C1C(=O)O[C@H]2[C@H]1CC/C(C)=C/CC[C@@]1(C)O[C@@H]21 [Parthenolide (15), parthenolide]
IC50 (T. cruzi): 2.01 µM

C=C1CC[C@@H](O)[C@]2(C)CC[C@H]3C(=C)C(=O)O[C@@H]3[C@@H]12 [Reynosin (13), reynosin]
IC50 [2]: 40.2 ± 8.78 µM | Promastigotes L. amazonensis SI [2]: 1.94 | IC50 [3]: > 201 µM | Promastigotes L. donovani SI [3]: <0.39 | IC50 [4]: 58.2 ± 13.1 µM | Epimastigotes T. cruzi SI [4]: 1.34

C=C1C(=O)O[C@@H]2[C@H]3C(C)=CC[C@@H](O)[C@]3(C)CC[C@@H]12 [Santamarine (12), santamarine]
IC50 [2]: > 101 µM | Promastigotes L. amazonensis SI [2]: <0.77 | IC50 [3]: 12.1 ± 4.67 µM | Promastigotes L. donovani SI [3]: 6.35 | IC50 [4]: 9.74 ± 2.68 µM | Epimastigotes T. cruzi SI [4]: 7.91

C=C1C[C@@H]2OC(=O)C(=C)[C@H]2[C@H](O)/C=C(\C)CCC1=O [Tamirin (7), Tamirin]
CC50 at 24 h [1]: 23.3 ± 1.27 µM | IC50 [2]: 11.7 ± 2.52 µM | Promastigotes L. amazonensis SI [2]: 1.99 | IC50 [3]: 4.13 ± 1.25 µM | Promastigotes L. donovani SI [3]: 5.65 | IC50 [4]: > 69 µM | Epimastigotes T. cruzi SI [4]: <0.34

C=C1C(=O)O[C@H]2CC(=C)[C@@H](O)CC/C(C)=C/[C@@H](O)[C@H]12 [Tanachin (6), tanachin]
CC50 at 24 h [1]: 99.2 ± 4.43 µM | IC50 [2]: > 94.6 µM | Promastigotes L. amazonensis SI [2]: <1.05 | IC50 [3]: > 94.6 µM | Promastigotes L. donovani SI [3]: <1.05 | IC50 [4]: > 94.6 µM | Epimastigotes T. cruzi SI [4]: <1.05

C=C1C(=O)O[C@@H]2/C=C(\C)[C@H](O)CC/C(C)=C/[C@H](O)[C@@H]12 [Tatridin A (4), tatridin A]
CC50 at 24 h [1]: 32.4 ± 6.55 µM | IC50 [2]: > 94.6 µM | Promastigotes L. amazonensis SI [2]: <0.34 | IC50 [3]: > 94.6 µM | Promastigotes L. donovani SI [3]: <0.34 | IC50 [4]: > 94.6 µM | Epimastigotes T. cruzi SI [4]: <0.34

C=C1C(=O)O[C@@H]2/C=C(\C)[C@H](O)CC/C(C)=C/[C@H](OC(C)=O)[C@@H]12 [Tatridin A acetate (5), tatridin A acetate]
CC50 at 24 h [1]: 19.3 ± 0.91 µM | IC50 [2]: > 81.6 µM | Promastigotes L. amazonensis SI [2]: <0.24 | IC50 [3]: > 81.6 µM | Promastigotes L. donovani SI [3]: <0.24 | IC50 [4]: > 81.6 µM | Epimastigotes T. cruzi SI [4]: <0.24

From publication PMC8625207, “Antikinetoplastid Activity of Sesquiterpenes Isolated from the Zoanthid Palythoa aff. clavata” (Pharmaceuticals, 2021)
